Read-outs that look alike come from different tables or passages of the source.
What was measured:
Gardnerella vaginalis = assay: Probiotic - Gv liquid co-culture; assay type: cell-based; conditions: Example 2; free probiotic (10e7 or 10e8), prebiotic and Gv; plated after 4 and 24 hours
Experimental: Bacteria loading, viability, and stability were tested by CFU count, BacLight live/dead assay, and fluorescence microscopy. La viability and stability were evaluated at −20° C., 4° C., and 25° C. by counting colony forming units (CFUs). To determine the ability of probiotic EFs to decrease Gv viability, a La EF-Gv co-culture was assessed.
Bacteria were co-cultured in media using the following experimental design (FIG. 16A). The probiotic (L. acidophilus (La) or L. crispatus (Lcr)), the prebiotic, and the Gv were combined for bacterial cell co-culture experiments. Each tube was serially diluted and plated after 4 (FIG. 16B) and 24 (FIG. 16C) hours growth.

HIV-1 [1] = conditions: for interaction with Q-GRFT against HIV-1: in free and encapsulated forms
HSV-2 [2] = assay: In vivo HSV-2 efficacy, murine model of lethal HSV-2 infection (GRFT NPs and NP-EFs, Example 4); parameters: species or system BALB/c mice
Experimental: All in vivo experiments were approved by the University of Louisville's Institutional Animal Care and Use Committee (IACUC-17135) prior to testing. […] For these studies, mice were subcutaneously injected with 3 mg Depo-Provera (Revive, Madison, N.J.) 5 days prior to vehicle administration to induce the diestrous stage of their cycle. All materials administered to mice were UV-sterilized for 15 s prior to use. […] Untreated/uninfected mice and mice treated with 20 μg free GRFT (20 μL of 1,000 μg/mL) served as negative controls of infection, while untreated/infected mice served as a positive control for infection. Blank mPEG-PLGA nanoparticles were administered as an additional control group in efficacy studies.

HSV-2 [3] = assay: In vivo efficacy against a lethal dose of HSV-2 infection (GRFT fibers, Example 5); parameters: species or system BALB/c mice
Experimental: All in vivo experimental procedures were approved by the University of Louisville's Institutional Animal Care and Use Committee (IACUC 17135) prior to testing. All animal studies were conducted using 5-week-old female BALB/c mice (Jackson Laboratory, Bar Harbor, Me.) to evaluate the efficacy and safety of GRFT fibers. For efficacy studies, mice were administered either blank or GRFT fibers (5 mg) that were UV-sterilized for 15 s. Mice were subcutaneously injected with 3 mg Depo-Provera (Revive, Madison, N.J.) to induce the diestrous stage of their cycle, 5 days prior to fiber administration.
To determine the efficacy of GRFT fibers against HSV-2 infection, mice were administered a single dose of either GRFT PEO, PVA, or PVP fibers, or control groups (n=20). Twenty-four hours after fiber administration, mice were challenged with HSV-2 (20 μL, LD90 5,000 PFU). Untreated/infected mice were used as positive controls for infection, while untreated/uninfected mice and infected mice treated with free GRFT (20 μL, of 1,000 μg/mL, 20 μg GRFT) served as negative controls. […] Blank PEO fibers were administered as an additional control group in efficacy studies. Mice were monitored daily for 14 days after HSV-2 challenge using an established 4-point scale to monitor the progression of viral infection. Each day, mice were weighed and examined for signs of neurological and epithelial damage. […]

HIV-1 [4] = conditions: eluates of 1% w/w GRFT fibers
Source text: TZM-bl cells, obtained from the National Institutes of Health (NIH) AIDS Research and Reference Reagent Program (ARRRP), were used to assess in vitro HIV-1 infectivity. TZM-bl cells are engineered HeLa cells that express CD4, CCR5 and CXCR4 receptors and contain a Tat-driven luciferase gene, which is activated by HIV-1 infection and permits sensitive and accurate measurements of infection. TZM-bl cells are highly permissive to infection by most strains of HIV and molecularly cloned Env-pseudotyped viruses. TZM-bl cells were cultured in DMEM containing 10% FBS, 25 mM HEPES, and 50 μg/mL gentamicin. […]
The antiviral activity of GRFT fibers against HIV-1 was measured using an in vitro HIV-1 pseudovirus inhibition assay. As previously described, HIV-1 inhibition was determined as a function of reduction in luciferase reporter gene expression after a single round of infection in TZM-bl cells. The optimal virus dilution was established prior to the experiments to yield 100,000 relative luminescence units (RLUs). […]
After 48 hr, 100 μL, culture medium was carefully removed from each well. Luminescence was measured using the Bright-Glo luciferase assay system (Promega Corporation, Madison, Wis.) by adding 100 μL, Bright-Glo reagent solution to each well for 5 min. Plates were read via luminescence by the Synergy HT reader (BioTek). […]

HSV-2 [5] = assay: In vitro HSV-2 plaque assay in Vero E6 cells (GRFT fibers, Example 5); assay type: cell-based, HSV-2 (4674); conditions: eluates of 10% w/w GRFT fibers; 1 hr prior to infection
Experimental: To conduct HSV-2 plaque assays, Vero E6 cells and HSV-2 (4674) were kindly provided by Dr. Kenneth Palmer from the University of Louisville.
HSV-2 plaque assays were conducted to evaluate the in vitro efficacy of 10% w/w GRFT fibers against HSV-2 infection as previously described. Briefly, Vero E6 cells were seeded at 600,000 cells/well in a 6-well flat bottom plate (50% confluence) and grown for 24 hr to confluence. Prior to cell infection, 10% w/w GRFT fibers (30 mg) were dissolved in 20 mL complete plating media (1% FBS MEM). Once the cells were fully confluent, the growth media was removed and replaced with 2 mL of GRFT fiber eluate dilutions, followed by HSV-2 infection (3,000 PFU per well) 1 hr later. Free GRFT (2,000 μg/mL), corresponding to the concentration necessary to provide complete HSV-2 inhibition, was used as a positive control for inhibition, in addition to untreated/uninfected cells. Untreated/infected cells, were used as a negative control of inhibition.
Subsequent to HSV-2 infection, plates were incubated for 48 hr at 37° C., all media was removed, and cells were fixed with 1.5 mL methanol for 10 min. […] Finally, plates were washed with Milli-Q water, and plaques were counted after drying. […] Samples were analyzed in triplicate, and GraphPad Prism software was used to determine and compare the IC50 values of GRFT fibers to free GRFT.

HIV-1 [6] = conditions: NPs or eluates from 20% w/w NP-EF composites
Experimental: TZM-bl cells, obtained from the National Institutes of Health AIDS Research and Reference Reagent Program (ARRRP), are engineered HeLa cells that express CD4, CCR5 and CXCR4 receptors, and were used to assess in vitro HIV-1 infectivity. TZM-bl cells are highly permissive to infection by most HIV-1 and pseudovirus strains, and contain HIV-activated Tat-driven luciferase, allowing for precise quantification of infection. TZM-bl cells were cultured in Dulbecco's Modified Eagle medium (DMEM) containing 10% fetal bovine serum (FBS), 25 mM HEPES, and 50 μg/mL gentamicin (Thermo Fisher). […]
HIV inhibition was determined as a function of reduction in luciferase reporter gene expression after a single round of infection with pseudotyped HIV in TZM-bl cells. The optimal virus dilution (1:16) was established to yield ≥96,800 relative luminescence units (RLUs). […]
After 48 hr, 100 μL of culture medium was removed from each well. Luminescence was measured using the Bright-Glo luciferase assay (Promega Corporation, Madison, Wis.) by adding 100 μL Bright-Glo reagent solution to each well for 5 min and recording relative luminescence units (RLUs, Synergy HT reader, BioTek). […]

[7] = Met78Gln variant versus wild-type GRFT; cited from earlier work

In the case of inulin, the “effect on Gv growth in probiotic-prebiotic-Gv co-culture” value (Gardnerella vaginalis) is reported as “increase of Gv growth”.

In the case of `Cc1cc(C)c(Nc2ccnc(Nc3ccc(C#N)cc3)n2)c(C)c1` [DAP, Dapivirine], the “interaction with Q-GRFT against HIV-1” value (HIV-1 [1]) is reported as “synergistic interactions”.

For Griffithsin [free GRFT], the survivability (HSV-2 [2]; intravaginal, single HSV-2 challenge LD90 5,000 PFU 24 hr later, 14 d post-infection, n=20) was 85%, the “onset of symptoms and progression of infection” value (HSV-2 [2]; treated mice that became symptomatic, relative to untreated/infected control group) was “delayed onset of symptoms and a more gradual progression of infection” and the progression of infection (HSV-2 [3]; mice that exhibited symptoms, relative to untreated/infected mice) was “decreased progression of infection”. The “infected mice whose initial symptoms disappeared near the end of the study” value (HSV-2 [3]; of 20 mice) was 1 of 20, the “1 Hr HIV-1 IC50” value (HIV-1 [4]; 1 hr prior to infection) was 24.1 ± 15.6 ng/mL and the “24 Hr HIV-1 IC50” value (HIV-1 [4]; 24 hr prior to infection) was 22.8 ± 12.2 ng/mL. For the same molecule, the “1 Hr HSV-2 IC50” value (HSV-2 [5]) was 25.5 ± 0.5 µg/mL, the “IC50 against HIV-1” value (HIV-1 [6]; administered to TZM-bl cells 1 hr prior to infection) was 21.5 ± 5.3 ng/mL and the “IC50 against HIV-1” value (HIV-1 [6]; administered to TZM-bl cells 24 hr prior to infection) was 20.8 ± 6.7 ng/mL.

With `Cc1nnc(C(=O)NC(C)(C)c2nc(C(=O)NCc3ccc(F)cc3)c(O)c(=O)n2C)o1` [RAL, Raltegravir] the “interaction with Q-GRFT against HIV-1” value (HIV-1 [1]) was “synergistic interactions”.

In the case of `C[C@H](Cn1cnc2c(N)ncnc21)OCP(=O)(O)O` [TFV, Tenofovir], the “interaction with Q-GRFT against HIV-1” value (HIV-1 [1]) is reported as “synergistic interactions”.

For “free Q-GRFT: oxidation-resistant variant of GRFT in which the Met at position 78 was replaced by a Gln”, the susceptibility to oxidation [7] is given as “no susceptibility to oxidation” and the “fold lowering of IC50 of free Q-GRFT” value (HIV-1 [1]; in combination with the free ARVs (TFV, RAL, DAP)) is given as “up to 6 fold”.

Reference: US20220000765A1, “METHODS AND COMPOSITION FOR TREATING MICROBIAL INFECTIONS” (UNIVERSITY OF LOUISVILLE RESEARCH FOUNDATION, INC., priority 2018, published 2022)
